Test results from patent US20220409617A1, “Drug Formulations and Methods of Treatment for Metabolic Disorders” (The Regents of the University of California, priority 2019, published 2022).

Tested on: hepatic lipid accumulation
Assay: Hepatic steatosis and lipidomic profiling of liver and quadriceps muscle
Assay type: in vivo, mouse
Details: HFD-fed mice
Experimental: Lipids were extracted from liver and quadriceps tissue using a modified MTBE method (Matyash et al, 2008; Abbott et al, 2013). Briefly, 10 mg/ml of tissue was homogenized in ice-cold 150 mM ammonium acetate using a bead homogenizer (1.4 mm ceramic) kept below 4° C. using liquid nitrogen vapor (Precellys 24 homogenizer with Cryolys cooling unit, Bertin Technologies, Montigny-le-Bretonneux, France). From this, 20 μl of homogenized tissues were added to glass vials containing MTBE and methanol (3:1 v/v, with 0.01% BHT), alongside 10 μl of an internal standard solution containing 10 μM each: phosphatidylcholine (PC) 17:0/17:0, phosphatidylethanolamine (PE) 17:0/17:0, phosphatidylserine (PS) 17:0/17:0, phosphatidylglycerol (PG) 17:0/17:0, lysophosphatidylcholine (LPC) 17:0, lysophosphatidylethanolamine (LPE) 14:0, ceramide (Cer) d18:1/17:0, dihydrosphingomyelin d18:0/12:0, diacylglycerol (DAG) 17:0/17:0, D5-triacylglycerol (TAG) 48:0, and cholesteryl ester (CE) 22:1. Samples were allowed to rotate at 4° C. overnight prior to the addition of 1 volume of ice-cold 150 mM ammonium acetate. Samples were vortexed thoroughly prior to centrifugation (2000×g, 5 min) to enable phase separation. […]
Extracted lipids were analyzed by liquid chromatography-mass spectrometry (LC-MS) using a Dionex Ultimate 3000 LC pump and Q Exactive Plus mass spectrometer equipped with a heated electrospray ionization (HESI) source (Thermo Fisher Scientific). […] Data were acquired in full scan/data-dependent MS2 mode (full scan resolution 70,000 FWHM, max ion injection time 50 ms, scan range m/z 200-1500), with the 10 most abundant ions being subjected to collision-induced dissociation using an isolation window of 1.5 Da and a normalized stepped collision energy of 15/27 eV, with product ions detected at a resolution of 17,500. […]
Lipids were analyzed using MS-DIAL (Tsugawa et al, 2015). Lipids were detected in both positive and negative ionization modes using a minimum peak height of 1×10^4 cps, a MS1 tolerance of 5 ppm and MS2 tolerance of 10 ppm, and a minimum identification score of 50%. […]

CCCCCCCCc1ccc([C@H]2CCN[C@@H]2CO)cc1.Cl [compound 893]
Hepatic steatosis (120 mg/kg): eliminated hepatic steatosis | Liver triglyceride and ceramide levels (treated for 4 weeks): restored normal triglyceride and ceramide levels in the liver | Muscle ceramide levels (treated for 4 weeks, quadriceps): ceramide levels trended lower in muscle
